Experimental data: PubChem BioAssay (NCI)
Several values for one entry are separate records, joined by “and”; a condition that tells them apart may be missing. Equal entries are not always repeated.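 Interpolation was linear, between the two tested concentrations surrounding the appropriate level; five concentrations were tested over 48 hours in 96-well plates. GI50: concentration for 50% inhibition of growth. TGI marks complete inhibition of growth.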

Assays:
Test in all cases: NCI tumour cell line growth inhibition, 48 h
[1] = system: NCI-H522 lung
[2] = system: IGROV1 ovarian
[3] = system: OVCAR-5 ovarian
[4] = system: MALME-3M melanoma
[5] = system: OVCAR-8 ovarian
[6] = system: A549 NSCLC
[7] = system: NCI-H226 lung
[8] = system: RXF 393 renal
[9] = system: LOX IMVI melanoma
[10] = system: SN12C renal

Row | SMILES | GI50 [1] | TGI [1] | GI50 [2] | TGI [2] | GI50 [3] | TGI [3] | GI50 [4] | TGI [4] | GI50 [5] | TGI [5] | GI50 [6] | TGI [6] | GI50 [7] | TGI [7] | GI50 [8] | TGI [8] | GI50 [9] | TGI [9] | GI50 [10] | TGI [10]
1 | N#CC1CCc2c(c(-c3cn[nH]c3C(F)(F)F)nc3c(F)cc4[nH]ncc4c23)C1 (stereo not drawn) | 2.31 µM | 8.61 µM | 2.46 µM | 8.79 µM | 13.7 µM | 57.7 µM | 3.31 µM | 11.5 µM | 13.7 µM | > 100 µM | 21.2 µM | > 100 µM | 16 µM | > 100 µM | 2.39 µM | 7.3 µM | 3.45 µM | 15.3 µM | 4.22 µM | 68.4 µM
2 | CN1N=Nc2c(C(F)(F)F)nn(-c3ccccc3)c2N(C)C1=O | > 100 µM | > 100 µM | > 100 µM | > 100 µM | > 100 µM | > 100 µM | > 100 µM | > 100 µM |  | > 100 µM | > 100 µM | > 100 µM | > 100 µM | > 100 µM |  | > 100 µM | > 100 µM | > 100 µM | > 100 µM | > 100 µM
3 | O=C(O)c1cc2c(c3ccsc13)-c1ccccc1CC2 | 29 µM | 82.1 µM | 33.9 µM | > 100 µM | 60.2 µM | > 100 µM | 18.8 µM | 59.6 µM | 40.7 µM | > 100 µM | 36.1 µM | > 100 µM | 34.8 µM | > 100 µM | 36.6 µM | > 100 µM | 40.8 µM | > 100 µM | 32.1 µM | > 100 µM
4 | CC(C)(F)C[C@H](N[C@@H](c1ccc(-c2ccc(S(C)(=O)=O)cc2)cc1)C(F)(F)F)C(=O)NC1(C#N)CC1 | 15.8 µM and 24.7 µM | 55 µM and > 100 µM | 33.2 µM and 30.2 µM | 55 µM and 91.2 µM | > 100 µM | > 100 µM | 17.5 µM and 22.2 µM | 55 µM and 62 µM | 18 µM and 19.5 µM | 55 µM and 63.8 µM | > 55 µM and 41.8 µM | > 100 µM | 16.4 µM and 23.6 µM | 55 µM and 63.6 µM | 7.14 µM and 20.5 µM | 18 µM and 45.2 µM | > 100 µM | > 100 µM | 14.8 µM and 42.6 µM | 55 µM and > 100 µM
5 | Cc1ccc(SCC(O)=C2C(=O)CCCC2=O)cc1 |  | > 100 µM |  | > 100 µM |  | > 100 µM |  | > 100 µM |  | > 100 µM |  | > 100 µM |  | > 100 µM |  | > 100 µM |  | > 100 µM |  | > 100 µM
6 | N#C/C(=C\c1cccnc1)c1nc2ccccc2o1 | > 100 µM | > 100 µM | > 100 µM | > 100 µM | > 100 µM | > 100 µM | 21.8 µM | > 100 µM | > 100 µM | > 100 µM | > 100 µM | > 100 µM | > 100 µM | > 100 µM | > 100 µM | > 100 µM | > 100 µM | > 100 µM | > 100 µM | > 100 µM
